# Values of other authors in US7030094B2, “Immunostimulant compositions comprising an aminoalkyl glucosaminide phosphate and QS-21” (priority 2002, dated 2006).
# Like-named read-outs stand apart in the source and are kept apart here.
substance,measurement,setting,value
QS-21,concentration causing hemolysis of sheep red blood cells,sheep red blood cells,≥ 25000 ng/mL
same,critical micellar concentration,in phosphate buffered saline,~0.02 % (w/v)
same,critical micellar concentration,in water,about 0.03 % (w/v)
